Activity, Ki and IC50 data for 5 molecules are collected here from ChEMBL document CHEMBL1144040, “Inhibitors of anthrax lethal factor based upon N-oleoyldopamine” (Bioorg Med Chem Lett, 2008).

Calls of active or inactive are those of the source. The calls are words filed in the database; no cut-off is given here.

Assay [1] has as its target T1, Lethal factor (Bacillus anthracis) (UniProt P15917).
T1 sequence (whole entry): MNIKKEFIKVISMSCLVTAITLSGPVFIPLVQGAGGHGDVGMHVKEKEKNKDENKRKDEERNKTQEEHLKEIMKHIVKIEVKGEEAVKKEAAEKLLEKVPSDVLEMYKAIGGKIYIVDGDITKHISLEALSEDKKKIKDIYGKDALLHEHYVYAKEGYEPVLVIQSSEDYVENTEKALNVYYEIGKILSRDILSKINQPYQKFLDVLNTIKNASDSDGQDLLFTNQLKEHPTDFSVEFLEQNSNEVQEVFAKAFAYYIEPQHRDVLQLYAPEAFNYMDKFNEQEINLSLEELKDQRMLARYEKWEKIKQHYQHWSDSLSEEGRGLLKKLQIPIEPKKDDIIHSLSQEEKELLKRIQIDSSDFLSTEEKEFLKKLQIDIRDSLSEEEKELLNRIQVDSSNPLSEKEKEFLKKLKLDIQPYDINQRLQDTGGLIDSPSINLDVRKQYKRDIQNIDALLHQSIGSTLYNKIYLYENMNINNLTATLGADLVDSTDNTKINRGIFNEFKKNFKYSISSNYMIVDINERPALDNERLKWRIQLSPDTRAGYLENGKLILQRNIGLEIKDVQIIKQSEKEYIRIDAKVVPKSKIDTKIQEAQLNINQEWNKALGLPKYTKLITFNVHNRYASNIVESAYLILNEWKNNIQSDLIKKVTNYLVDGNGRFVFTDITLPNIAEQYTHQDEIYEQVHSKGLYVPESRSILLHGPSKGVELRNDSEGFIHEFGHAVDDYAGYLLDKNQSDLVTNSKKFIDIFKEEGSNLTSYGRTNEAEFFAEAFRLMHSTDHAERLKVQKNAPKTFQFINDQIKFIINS
As to the kind of experiment: Inhibition of Bacillus anthracis lethal factor up to 100 uM by FRET assay.

Assay [2] has as its target T2, Lethal factor (Bacillus anthracis, UniProt P15917).
T2 sequence (P15917 whole entry): T1 sequence (whole entry)
As to the kind of experiment: Inhibition of Bacillus anthracis lethal factor by FRET assay.

Assay [3] has as its target T2, Lethal factor. As to the kind of experiment: Inhibition of Bacillus anthracis lethal factor by cell-based assay.
The subject of assay [4] is J774.A1. As to the kind of experiment: Inhibition of lethal factor induced toxicity in mouse J774A.1 macrophages after 4 hrs by MTT assay. It counts as functional, cell-based. To be noted: J774.A1, 4 h.

As for `CCCCCCCCCCCCCCCCCC(=O)NCCc1ccc(O)c(O)c1`, in assay [1], the outcome was inactive.

As to `CCCCCCCC/C=C\CCCCCCCC(=O)NCc1ccc(C(=O)NO)cc1`, affinity in assay [2] was put at a Ki of 6.2 µM. Inhibition in assay [3] was half-maximal at 42 µM (IC50).

As for `CCCCCCCC/C=C/CCCCCCCC(=O)NCCc1ccc(O)c(O)c1`, the outcome in assay [1] was inactive.

With `CCCCCCCC/C=C\CCCCCCCC(=O)NCc1ccc(O)c(O)c1`, the affinity in assay [2], expressed as Ki, was 2.2 µM. In addition, the IC50 in assay [4] is 4.3 µM; in assay [3], 15 µM.

Consider `CCCCCC(=O)NCCc1ccc(O)c(O)c1`, for which, in assay [1], the outcome was inactive.
